From US6648952B1, “Anthrapyridone compound, aqueous magenta ink compositions and ink-jet recording method” (Nippon Kayaku Kabushiki Kaisha, priority 1999, dated 2003)
Structures can show the parent of a compound that is named as a salt.

Experiment: Solubility of the dye in pure water
Format: physicochemical
Conditions: pure water (ion exchanged water), 25° C.

solubility: 100 mg/mL
Structure (SMILES): CC(C)(C)CC(C)(C)c1ccc(Oc2cc(Nc3ccc(S(=O)(=O)O)cc3)c3c4c(c(C(=O)c5ccccc5)c(=O)[nH]c24)-c2ccccc2C3=O)c(S(=O)(=O)O)c1 [Example M1, sodium salt of anthrapyridone disulfonic acid of Formula (1)]
